Assay results from patent publication US11739098B2 (BRISTOL-MYERS SQUIBB COMPANY, priority 2017, dated 2023).

Key:
Type in all cases: cell-based
[1] = target: T1, human TLR7 (Homo sapiens, UniProt Q9NYK1); experiment: TLR7 inhibition reporter assay (HEK-Blue cells, SEAP reporter, gardiquimod stimulation); conditions: HEK-Blue cells overexpressing human TLR7, SEAP reporter, gardiquimod 7.5 μM
T1 construct: host or cells: HEK-Blue cells (HEK293-derived reporter line)
T1 sequence (Q9NYK1 27-1049): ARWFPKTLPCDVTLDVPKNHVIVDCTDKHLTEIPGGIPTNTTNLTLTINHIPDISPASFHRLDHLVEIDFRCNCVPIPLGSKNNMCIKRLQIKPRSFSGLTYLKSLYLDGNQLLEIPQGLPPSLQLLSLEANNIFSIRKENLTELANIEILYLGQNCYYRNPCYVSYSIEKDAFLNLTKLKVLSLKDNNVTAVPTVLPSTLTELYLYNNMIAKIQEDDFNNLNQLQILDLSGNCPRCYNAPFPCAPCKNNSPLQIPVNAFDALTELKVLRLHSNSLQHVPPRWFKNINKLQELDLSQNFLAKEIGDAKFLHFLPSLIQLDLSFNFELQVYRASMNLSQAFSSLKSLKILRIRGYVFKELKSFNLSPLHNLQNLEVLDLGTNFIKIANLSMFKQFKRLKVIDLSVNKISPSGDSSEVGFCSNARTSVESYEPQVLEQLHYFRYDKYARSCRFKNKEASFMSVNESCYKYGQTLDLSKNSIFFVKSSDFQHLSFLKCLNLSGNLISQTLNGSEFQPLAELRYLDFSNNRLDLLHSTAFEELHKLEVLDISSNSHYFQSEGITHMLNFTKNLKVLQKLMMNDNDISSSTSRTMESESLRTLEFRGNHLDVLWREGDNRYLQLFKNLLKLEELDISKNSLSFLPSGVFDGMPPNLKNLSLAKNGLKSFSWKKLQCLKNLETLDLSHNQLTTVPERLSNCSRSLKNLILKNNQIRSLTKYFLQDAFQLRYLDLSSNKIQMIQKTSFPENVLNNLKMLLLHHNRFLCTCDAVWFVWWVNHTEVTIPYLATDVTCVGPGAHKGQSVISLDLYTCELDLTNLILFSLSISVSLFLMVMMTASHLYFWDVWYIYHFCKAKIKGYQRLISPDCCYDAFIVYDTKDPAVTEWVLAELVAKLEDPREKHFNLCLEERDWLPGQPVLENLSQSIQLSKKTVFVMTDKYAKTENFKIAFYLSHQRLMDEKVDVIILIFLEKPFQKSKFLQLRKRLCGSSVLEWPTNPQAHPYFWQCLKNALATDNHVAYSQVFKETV
How it was run: (§1)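 Cells seeded per well (15000 TLR7, 20,000 TLR8, 25,000 TLR9); compound added over 0.05 nM–50 μM for 30 min at room temperature; agonist added (TLR7 gardiquimod 7.5 μM, TLR8 R848 15.9 μM, TLR9 ODN2006 5 nM); 22 h at 37 °C; SEAP measured; percent inhibition calculated.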

[2] = target: T2, human TLR8 (Homo sapiens, UniProt Q9NR97); experiment: TLR8 inhibition reporter assay (HEK-Blue cells, SEAP reporter, R848 stimulation); conditions: HEK-Blue cells overexpressing human TLR8, SEAP reporter, R848 15.9 μM
T2 construct: host or cells: HEK-Blue cells (HEK293-derived reporter line)
T2 sequence (Q9NR97 27-1041): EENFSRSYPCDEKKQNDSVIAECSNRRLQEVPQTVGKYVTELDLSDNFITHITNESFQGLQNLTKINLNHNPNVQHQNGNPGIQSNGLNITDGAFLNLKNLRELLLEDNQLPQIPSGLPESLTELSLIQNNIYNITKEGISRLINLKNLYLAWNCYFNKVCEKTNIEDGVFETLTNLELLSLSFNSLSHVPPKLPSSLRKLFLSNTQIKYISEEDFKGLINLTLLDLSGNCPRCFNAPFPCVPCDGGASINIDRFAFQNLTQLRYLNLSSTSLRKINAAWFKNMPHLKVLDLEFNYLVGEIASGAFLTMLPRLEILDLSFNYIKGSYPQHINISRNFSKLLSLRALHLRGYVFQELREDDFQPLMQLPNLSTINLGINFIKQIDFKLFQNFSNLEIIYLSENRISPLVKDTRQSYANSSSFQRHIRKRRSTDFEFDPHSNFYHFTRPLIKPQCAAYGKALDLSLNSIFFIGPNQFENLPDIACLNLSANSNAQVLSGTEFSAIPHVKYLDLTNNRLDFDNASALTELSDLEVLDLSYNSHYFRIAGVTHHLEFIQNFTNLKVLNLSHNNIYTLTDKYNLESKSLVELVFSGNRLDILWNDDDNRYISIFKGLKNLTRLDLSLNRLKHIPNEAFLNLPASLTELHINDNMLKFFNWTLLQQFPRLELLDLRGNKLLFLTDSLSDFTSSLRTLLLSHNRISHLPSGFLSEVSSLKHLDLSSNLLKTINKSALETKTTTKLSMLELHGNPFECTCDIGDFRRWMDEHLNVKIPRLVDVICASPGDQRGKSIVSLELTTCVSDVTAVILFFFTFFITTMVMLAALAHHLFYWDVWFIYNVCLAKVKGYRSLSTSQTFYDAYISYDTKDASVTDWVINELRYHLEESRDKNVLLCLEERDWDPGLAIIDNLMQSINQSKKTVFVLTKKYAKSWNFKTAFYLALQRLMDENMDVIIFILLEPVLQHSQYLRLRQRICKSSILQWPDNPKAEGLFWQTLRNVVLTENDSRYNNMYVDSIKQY
How it was run: as §1

[3] = target: T3, human TLR9 (Homo sapiens, UniProt Q9NR96); experiment: TLR9 inhibition reporter assay (HEK-Blue cells, SEAP reporter, ODN2006 stimulation); conditions: HEK-Blue cells overexpressing human TLR9, SEAP reporter, ODN2006 5 nM
T3 construct: host or cells: HEK-Blue cells (HEK293-derived reporter line)
T3 sequence (Q9NR96 26-1032): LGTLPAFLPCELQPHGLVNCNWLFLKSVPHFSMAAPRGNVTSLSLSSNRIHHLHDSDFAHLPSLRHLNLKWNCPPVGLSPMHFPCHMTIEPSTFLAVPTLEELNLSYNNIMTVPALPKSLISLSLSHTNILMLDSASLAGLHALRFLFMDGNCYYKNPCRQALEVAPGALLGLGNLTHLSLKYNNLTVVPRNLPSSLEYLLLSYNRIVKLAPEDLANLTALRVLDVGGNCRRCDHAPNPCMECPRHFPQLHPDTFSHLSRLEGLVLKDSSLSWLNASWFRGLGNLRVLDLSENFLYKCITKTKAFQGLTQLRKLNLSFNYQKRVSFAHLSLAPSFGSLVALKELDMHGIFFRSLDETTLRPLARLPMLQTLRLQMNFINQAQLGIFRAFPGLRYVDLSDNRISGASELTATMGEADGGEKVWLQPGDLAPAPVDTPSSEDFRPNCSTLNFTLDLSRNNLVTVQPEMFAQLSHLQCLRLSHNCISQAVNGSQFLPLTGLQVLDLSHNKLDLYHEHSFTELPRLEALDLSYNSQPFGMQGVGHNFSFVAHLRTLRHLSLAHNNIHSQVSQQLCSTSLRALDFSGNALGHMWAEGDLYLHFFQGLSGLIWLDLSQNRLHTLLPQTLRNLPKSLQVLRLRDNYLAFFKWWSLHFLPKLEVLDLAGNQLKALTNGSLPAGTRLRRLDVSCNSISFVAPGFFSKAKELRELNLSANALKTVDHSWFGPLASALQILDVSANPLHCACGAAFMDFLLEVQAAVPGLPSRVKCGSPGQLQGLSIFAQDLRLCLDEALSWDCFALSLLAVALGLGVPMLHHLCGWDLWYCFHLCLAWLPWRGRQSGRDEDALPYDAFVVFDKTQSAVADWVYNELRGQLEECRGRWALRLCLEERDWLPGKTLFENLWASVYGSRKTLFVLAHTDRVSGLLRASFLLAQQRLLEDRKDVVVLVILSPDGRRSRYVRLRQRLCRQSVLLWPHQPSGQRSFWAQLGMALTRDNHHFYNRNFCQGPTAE
How it was run: as §1

| Compound | IC50 [1] [nM] | IC50 [2] [nM] | IC50 [3] [nM] |
| --- | --- | --- | --- |
| CC(C)c1c(-c2ccn3c(=O)[nH]nc3c2)[nH]c2ccc(C3CCNCC3)cc12 [Example 199, 7-(3-isopropyl-5-(piperidin-4-yl)-1H-indol-2-yl)-[1,2,4]triazolo[4,3-a]pyridin-3(2H)-one] | < 100 | < 100 | 100 to 1000 |
| CNC(=O)CN1CCC(c2ccc3[nH]c(-c4cc(C)n5cc(C)nc5c4)c(C(C)C)c3c2)CC1 [Example 352, 2-(4-(2-(2,5-dimethylimidazo[1,2-a]pyridin-7-yl)-3-isopropyl-1H-indol-5-yl)piperidin-1-yl)-N-methylacetamide] | 100 to 1000 | 100 to 1000 | 100 to 1000 |
| CNCC(=O)N1CCC(c2ccc3[nH]c(-c4cnc5ncnn5c4)c(C(C)C)c3c2)CC1 [Example 555, 1-(4-(2-([1,2,4]triazolo [1,5-a]pyrimidin-6-yl)-3-isopropyl-1H-indol-5-yl)piperidin-1-yl)-2-(methylamino)ethan-1-one] | < 100 | 100 to 1000 | 1000 to 50000 |
| Cc1cc(-c2[nH]c3ccc(C4CCN(CC(=O)N(C)C)CC4)cc3c2C(C)C)c2ccccc2n1 [Example 327, 2-(4-(3-isopropyl-2-(2-methylquinolin-4-yl)-1H-indol-5-yl)piperidin-1-yl)-N,N-dimethylacetamide] | < 100 | < 100 | 1000 to 50000 |
| Cc1cc(-c2[nH]c3ccc(C4CCNCC4)cc3c2C(C)C)cn2cc(C(=O)NCCO)nc12 [Example 267, N-(2-hydroxyethyl)-6-(3-isopropyl-5-(piperidin-4-yl)-1H-indol-2-yl)-8-methylimidazo[1,2-a]pyridine-2-carboxamide] | < 100 | < 100 | 1000 to 50000 |

Other lines, results leading:

| IC50 [1] [nM] | IC50 [2] [nM] | IC50 [3] [nM] | Compound |
| --- | --- | --- | --- |
| < 100 | < 100 | 100 to 1000 | CNCCN1CCC(c2ccc3[nH]c(-c4ccnc5[nH]ncc45)c(C(C)C)c3c2)C(F)C1 (stereo not drawn) [Example 675, 2-(3-fluoro-4-(3-isopropyl-2-(1H-pyrazolo[3,4-b]pyridin-4-yl)-1H-indol-5-yl)piperidin-1-yl)-N-methylethan-1-amine] |
| < 100 | < 100 | 100 to 1000 | CCc1c(-c2ccnc3[nH]nc(C)c23)[nH]c2ccc(C3CCN(Cc4cnc[nH]4)CC3)cc12 [Example 873, 4-(5-(1-((1H-imidazol-5-yl)methyl)piperidin-4-yl)-3-ethyl-1H-indol-2-yl)-3-methyl-1H-pyrazolo[3,4-b]pyridine] |
| 1000 to 50000 | < 100 | < 100 | Cc1c(-c2ccnc3c2ccn3C)[nH]c2ccc(C3CCN(C4CCN(CC(C)C)CC4)CC3)cc12 [Example 843, 4-(5-(1′-isobutyl-[1,4′-bipiperidin]-4-yl)-3-methyl-1H-indol-2-yl)-1-methyl-1H-pyrrolo[2,3-b]pyridine] |
| < 100 | 100 to 1000 | 1000 to 50000 | Cc1cc(-c2[nH]c3ccc(C4CCN(C5CCOCC5)CC4)cc3c2C(C)C)cc2cccnc12 [Example 704, 6-(3-isopropyl-5-(1-(tetrahydro-2H-pyran-4-yl)piperidin-4-yl)-1H-indol-2-yl)-8-methylquinoline] |
| 100 to 1000 | 100 to 1000 | > 50000 | CC(=O)N1CCC[C@H]1C(=O)N1CCC(c2ccc3[nH]c(-c4ccnc5[nH]ncc45)c(C(C)C)c3c2)CC1 [Example 566, (S)-1-(2-(4-(3-isopropyl-2-(1H-pyrazolo[3,4-b]pyridin-4-yl)-1H-indol-5-yl)piperidine-1-carbonyl)pyrrolidin-1-yl)ethan-1-one] |
| 100 to 1000 | > 3130 | 1000 to 50000 | Cc1cn2cc(-c3[nH]c4ccc(C5CCN(C(=O)C[C@H](C)O)CC5)cc4c3CC(F)F)ccc2n1 [Example 608, (S)-1-(4-(3-(2,2-difluoroethyl)-2-(2-methylimidazo[1,2-a]pyridin-6-yl)-1H-indol-5-yl)piperidin-1-yl)-3-hydroxybutan-1-one] |
